Measurements published in article PMC10747729, “Permeation Protection by Waterproofing Mucosal Membranes” (Pharmaceutics, 2023).

What was measured:
[1] = In vitro release/permeation assay through porcine skin, Franz diffusion cells; format: in vitro ADME; conditions: infinite dose 300 µL of 1% solution; for Papp at 4 h, 1 %: pig, read-out: Permeability Coef. Kp (converted)
Protocol: (§1) The in vitro release test was conducted with artificial membrane (Whatman® Nuclepore™) and porcine sublingual mucosa as well as pig skin membrane as a reference. Biological membranes (mucosa and skin) were dermatomed at 500 ± 50 µm of thickness. Membranes were placed in vertical Franz diffusion cells and conditioned in a thermostatic bath at 43 °C to assure a membrane surface temperature of 32 ± 1 °C as in the previous TMWL study. The receptor solution used was the same PBS:EtOH (1:1) as before. Data on the TWML, temperature, and humidity of the membrane were obtained before initiating the test with the Tewameter TM300 (Courage-Khazaka, Cologne, Germany).
(§2) On the modified mucosas, a volume of 70 µL of each formulation was applied and after one hour an infinite dose (300 µL) of tested solution was applied. […] Receptor fluid was collected at different times (30 min, 1 h, 2 h, 4 h) and the same volume was immediately replaced with fresh fluid. The aliquots were appropriately diluted and filtered (0.45 µm, Cameo, Sigma-Aldrich, St. Louis, MO, USA) before their analysis with HPLC/DAD.
(§3) The release of the active substances was determined with the cumulative amount released (Qn, μg/cm^2), which represents the cumulative amount of the active substances quantified in the receptor fluid per area of the sample [34]. The equation is as follows (1):(1) Qn=Cn×Vc+∑i=1n−1(Ci×Vs)/A, where Qn is the cumulative amount of active substance released at time n (μg/cm^2); Cn is the concentration of active substance in the collected sample (μg/mL); Vc is the volume of the Franz diffusion cell (3 mL); ∑i=1n−1 Ci is the sum of the active substance concentrations (µg/mL) determined in sampling intervals 1 to n − 1; Vs is the volume of the collected sample; and A is the surface area of the applied membrane (1.86 cm^2).
(§4) The best absorption model to describe the release of active substances was obtained from the graphic representation of data release (values/time), as described by Mallandrich et al.. All data collected were processed over time to obtain the best fit equation for each membrane using the nonlinear regression software STATGRAPHICS® plus 5 (Statgraphics Technologies, Inc., The Plains, VA, USA). Selection of the best equation was made in accordance with the highest correlation coefficient corrected for the number of degrees of freedom (R^2). Following that analysis, the parameters of the flow (J, […]), the permeability coefficient (Kp, cm/h), the delay time (Tl, h), the maximum concentration (Cmax, µg/mL), the maximum time (tmax, h), and the area under the curve (AUC) were calculated for each membrane.
(§5) The software was OpenLab (version 2.2.0). […] Methanol (Merck, Darmstadt, Germany) was used as an extraction solvent for all active substances. All analytical procedures were validated following the guidelines developed by the International Conference on Harmonization (ICH). The calibration curve, limit of quantification (LoQ), and limit of detection (LoD) were obtained and are detailed in Table 5.

[2] = In vitro release/permeation assay through porcine sublingual mucosa, unmodified or modified with formulations, Franz diffusion cells; format: in vitro ADME; conditions: for permeability (in words): across skin, mucosa and modified mucosa; for decrease in the permeability coefficient promoted by F16: mucosa modified with F16 vs unmodified mucosa; for Papp at 4 h, 1 %: pig, read-out: Permeability Coef. Kp (converted); for area under the curve, flux and permeability through unmodified mucosa compared to skin: unmodified mucosa vs porcine skin
Protocol: as §1, §2, §3, §4, §5

[3] = cited from earlier work
[4] = cited from earlier work; remark: listed apart in the source

| Compound | Flux. J [1] [µg/cm^2/h] | Lag Time. TL [1] [h] | Papp at 4 h, 1 % [1] [×10⁻⁶ cm/s] | Flux. J ([2]; MUCOSA F3) [µg/cm^2/h] | Lag Time. TL ([2]; MUCOSA F3) [h] | Flux. J ([2]; MUCOSA F6) [µg/cm^2/h] | Lag Time. TL ([2]; MUCOSA F6) [h] | Flux. J ([2]; MUCOSA F16) [µg/cm^2/h] | Lag Time. TL ([2]; MUCOSA F16) [h] | Flux. J ([2]; MUCOSA unmodified) [µg/cm^2/h] | Lag Time. TL ([2]; MUCOSA unmodified) [h] | permeability (in words) [2] | decrease in the permeability coefficient promoted by F16 [2] | Papp at 4 h, 1 % ([2]; MUCOSA F3) [×10⁻⁶ cm/s] | Papp at 4 h, 1 % ([2]; MUCOSA F6) [×10⁻⁶ cm/s] | Papp at 4 h, 1 % ([2]; MUCOSA F16) [×10⁻⁶ cm/s] | Papp at 4 h, 1 % ([2]; MUCOSA unmodified) [×10⁻⁶ cm/s] | area under the curve, flux and permeability through unmodified mucosa compared to skin [2] | pKa [3] | LogP (pH7.4) [4] |
| --- | --- | --- | --- | --- | --- | --- | --- | --- | --- | --- | --- | --- | --- | --- | --- | --- | --- | --- | --- | --- |
| Cn1c(=O)c2c(ncn2C)n(C)c1=O [CAF, Caffeine] | 75.09 ± 51.32 | 0.65 ± 0.24 | 1.68 | 102.73 ± 30.73 | 0.10 ± 0.08 | 611.08 ± 85.12 | 0.28 ± 0.08 | 78.93 ± 11.05 | -0.18 ± 0.03 | 428.40 ± 81.41 | 0.04 ± 0.34 | high permeability | approximately 80% | 2.3 | 13.7 | 1.77 | 9.6 | approximately four times higher | – | – |
| CC(C)Cc1ccc(C(C)C(=O)O)cc1 (stereo not shown) [IBU, Ibuprofen] | 24.79 ± 2.75 | -0.24 ± 0.19 | 0.569 | 498.25 ± 49.45 | 0.23 ± 0.01 | 451.01 ± 98.04 | 0.35 ± 0.06 | 74.41 ± 0.16 | 0.15 ± 0.003 | 346.91± 5.87 | 0.17 ± 0.07 | intermediate permeability | approximately 80% | 11.4 | 10.4 | 1.71 | 7.96 | 14 times higher | – | – |
| Ivermectin | 3.13 ± 0.86 | 0.59 ± 0.28 | – | 87.23 ± 21.83 | 0.28 ± 0.02 | 144.86 ± 29.93 | 0.32 ± 0.10 | 41.70 ± 5.67 | -0.09 ± 0.46 | 63.75 ± 1.57 | 0.24 ± 0.001 | – | approximately 40% | – | – | – | – | – | 12.47 | 5.83 |
| C[C@@H]1C[C@H]2[C@@H]3CCC4=CC(=O)C=C[C@]4(C)[C@@]3(F)[C@@H](O)C[C@]2(C)[C@@]1(O)C(=O)CO [DEX, Dexamethasone] | 5.84 ± 3.46 | 0.62 ± 0.16 | – | 330.43 ± 11.68 | 0.36 ± 0.04 | 289.38 ± 99.51 | 0.64 ± 0.36 | 68.26 ± 1.67 | -0.11 ± 0.27 | 335.25 ± 61.25 | 0.31 ± 0.13 | – | approximately 80% | – | – | – | – | – | 12.1 | – |
